Laboratory results reported in patent publication US11660306B2, “Treatment of Rett syndrome” (Cold Spring Harbor Laboratory, priority 2014, dated 2023).

Experiments:
PTP1B [1] = assay: Reversibility of PTP1B inhibition by triterpenes (Table 2); type: biochemical
PTP1B405 = PTP1B405 (Homo sapiens, UniProt P18031); assay: Triterpene inhibition of PTP1B405 (Table 2); type: biochemical
PTP1B321 = PTP1B321 (Homo sapiens, UniProt P18031); assay: Triterpene inhibition of PTP1B321 (Table 2); type: biochemical
Mecp2 mutant mice = assay: Anti-diabetic small molecules in Mecp2 mutant mice (FIG. 6D)
PTP1B [2] = biological target: PTP1B (Homo sapiens (Human), UniProt P18031); assay: PTP1B phosphatase inhibition; type: biochemical
Description: (§1) In this example, in order to determine the significance of the elevated PTP1B levels in animal models of Rett syndrome, the effects of small molecule inhibitors of the phosphatase were tested. Using para-Nitro Phenyl Phosphate (pNPP) as substrate, PTP1B inhibition by CPT157633 was studied (FIG. 13A). […] To obtain structural insights into the PTP1B-CPT157633 interaction, both biomolecular NMR spectroscopy and X-ray crystallography were used. Residues 1-301 from the catalytic domain of PTP1B were expressed in D2O-based medium and 2D [^1H,^15N] TROSY spectra were recorded in the absence and presence of CPT157633. […] This was confirmed by the crystal structure of the PTP1B:CTP157633 complex, which illustrated a non-covalent interaction. Electrostatic interactions made by the compound to critical active site residues are highlighted in FIG. 13G.
(§2) A second inhibitor of PTP1B that exerts its effect on the enzyme by a different mechanism was characterized. […] It inhibited PTP1B with selectivity compared to a panel of eight phosphatases investigated.

Mecp2−/y mice [3] = assay: Survival of Mecp2-null male mice; conditions: for survival (in words): Mecp2-null male mice, 5 mg/kg
[4] = system: panel of six PTPs and two dual-specificity phosphatases; assay: Specificity against a panel of phosphatases; type: biochemical
Description: as §1, §2

Mecp2−/y mice [5] = assay: Glucose tolerance test in Mecp2−/y male mice; conditions: 5 mg/Kg, two weeks after treatment

PTP1B (Homo sapiens (Human), UniProt P18031), sequence (P18031 whole entry, the tested form may be a part): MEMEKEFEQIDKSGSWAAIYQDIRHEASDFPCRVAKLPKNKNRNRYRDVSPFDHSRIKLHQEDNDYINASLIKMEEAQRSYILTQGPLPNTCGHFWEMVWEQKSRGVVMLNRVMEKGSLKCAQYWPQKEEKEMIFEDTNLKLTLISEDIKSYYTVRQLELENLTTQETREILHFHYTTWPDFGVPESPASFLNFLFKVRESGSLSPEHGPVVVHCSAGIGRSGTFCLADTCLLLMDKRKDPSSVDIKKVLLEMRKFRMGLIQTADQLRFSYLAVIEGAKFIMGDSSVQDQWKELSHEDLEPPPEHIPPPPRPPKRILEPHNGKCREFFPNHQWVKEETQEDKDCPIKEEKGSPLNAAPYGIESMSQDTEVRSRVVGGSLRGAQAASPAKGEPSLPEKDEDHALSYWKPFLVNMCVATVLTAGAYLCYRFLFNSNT

SMILES | Reversibility (PTP1B [1]) | Ki (PTP1B405) [µM] | Ki (PTP1B321) [µM] | other results
C=C(C)[C@@H]1CC[C@]2(CO)CC[C@]3(C)[C@H](CC[C@@H]4[C@@]5(C)CC[C@H](O)C(C)(C)[C@@H]5CC[C@]43C)[C@@H]12 | Reversible | 2 | 3 | 
COC[C@]12CC[C@@H](C)[C@H](C)[C@H]1[C@@]1(O)C=C[C@@H]3[C@@]4(C)CCC(=O)C(C)(C)[C@@H]4CC[C@@]3(C)[C@]1(C)CC2 | Reversible | 15 | 15 | 
C[C@H]1CC[C@@]2(OC1)O[C@H]1C[C@H]3[C@@H]4CC=C5C[C@@H](O)CC[C@]5(C)[C@H]4CC[C@]3(C)[C@H]1[C@@H]2C | Reversible | 25 | 36 | 
CC1(C)[C@@H](OC(=O)CCC(=O)O)CC[C@]2(C)[C@H]3C(=O)C=C4[C@@H]5C[C@@](C)(C(=O)O)CC[C@]5(C)CC[C@@]4(C)[C@]3(C)CC[C@@H]12 | Reversible | 5 | 7 | 
CC1(C)CC[C@]2(C)CC[C@]3(C)C(=CC[C@@H]4[C@@]5(C)CC[C@@H](O)[C@](C)(C(=O)O)[C@@H]5CC[C@]43C)[C@@H]2C1 | Reversible | 4 | 6 | 
C[C@H]1C(=O)CC[C@H]2[C@]1(C)CC[C@]13C[C@@]14CC[C@@]1(C)CCC(C)(C)C[C@]15C[C@]54CC[C@@]23C | Reversible | 2 | 4 | 
CN(CCOc1ccc(CC2SC(=O)NC2=O)cc1)c1ccccn1 (stereo not drawn) [rosiglitazone] |  |  |  | effectiveness compared with PTP1B inhibitors (Mecp2 mutant mice): none of the three inhibitors were as effective as PTP1B inhibitors
CC1(C)C=C2[C@H]3CC[C@@H]4[C@@]5(C)CCC(=O)C(C)(C)[C@@H]5CC[C@@]4(C)[C@]3(C)CC[C@@]2(C(=O)O)CC1 | Reversible | 5 | 7 | 
C[C@@H]1CC[C@]2(C(=O)NCCCCCCCCCCC(=O)N[C@@H](Cc3ccccc3)C(=O)O)CC[C@]3(C)C(=CCC4[C@@]5(C)CC[C@H](O)C(C)(C)C5CC[C@]43C)C2[C@H]1C (stereo partly drawn) [UA0713] |  |  |  | mode of inhibition of PTP1B (PTP1B [2]): non-competitive; Ki (PTP1B [2]; substrate not stated): 0.15 µM; survival (in words) (Mecp2−/y mice [3]): improved the survival; increase in survival (Mecp2−/y mice [3]; Mecp2−/y male mice, 5 mg/Kg, versus saline): 2 fold; median life-span (Mecp2−/y mice [3]; Mecp2−/y male mice, 5 mg/Kg, saline 40 days): 95 days; effect against phosphatase panel compared to PTP1B [4]: selectivity; glucose intolerance (Mecp2−/y mice [5]): markedly reduced
CC1(C)[C@@H](O)CC[C@]2(C)[C@H]3C(=O)C=C4[C@@H]5C[C@@](C)(C(=O)O)CC[C@]5(C)CC[C@@]4(C)[C@]3(C)CC[C@@H]12 | Reversible |  |  | 
CN(C)C(=N)N=C(N)N [metformin] |  |  |  | effectiveness compared with PTP1B inhibitors (Mecp2 mutant mice): none of the three inhibitors were as effective as PTP1B inhibitors
C=C(C)C1CC[C@]2(C(=O)O)CC[C@]3(C)[C@H](CC[C@@H]4[C@@]5(C)CC[C@H](O)C(C)(C)[C@@H]5CC[C@]43C)[C@@H]12 (stereo partly drawn) | Irreversible | 0.7 | 3 | 
CC1(C)CC[C@]2(C(=O)O)CC[C@]3(C)C(=CC[C@@H]4[C@@]5(C)CC[C@H](O)[C@@](C)(CO)[C@@H]5CC[C@]43C)[C@@H]2C1 | Reversible | 2 | 3.6 | 
CC1(C)CC[C@]2(C(=O)O)CC[C@]3(C)C(=CCC4[C@@]5(C)C[C@@H](O)[C@H](O)C(C)(C)[C@@H]5CC[C@]43C)[C@@H]2C1 (stereo partly drawn) | Reversible | 5.7 | 10 | 
CC(C)[C@H]1CC[C@]2(C)[C@H]3CC[C@@H]4[C@@]5(C)CCCC(C)(C)[C@@H]5CC[C@@]4(C)[C@]3(C)CC[C@@H]12 | Reversible | 5.7 | 9 | 
COC(=O)[C@]1(C)CC[C@]2(C)CC[C@]3(C)C4=CC=C5C(=CC(=O)C(O)=C5C)[C@]4(C)CC[C@@]3(C)[C@@H]2C1 | Irreversible | 8 | 10 | 

SMILES | Reversibility (PTP1B [1]) | Ki (PTP1B405) [µM] | Ki (PTP1B321) [µM] | other results
C[C@@H]1CC[C@]2(C(=O)O)CC[C@]3(C)C(=CCC4[C@@]5(C)CC[C@H](O)C(C)(C)C5CC[C@]43C)C2[C@H]1C (stereo partly drawn) [UA001, ursolic acid, reference compound] |  |  |  | survival (in words) (Mecp2−/y mice [3]): improved the survival
C[C@H]1[C@H](C)CC[C@]2(C)CC[C@]3(C)C(=CC[C@@H]4[C@@]5(C)CC[C@H](O)C(C)(C)[C@@H]5CC[C@]43C)[C@H]12 | Irreversible | 4 | 6 | 
C[C@H]1[C@H](C)CC[C@]2(C(=O)O)CC[C@]3(C)C(=CC[C@@H]4[C@@]5(C)CC[C@H](O)C(C)(C)C5CC[C@]43C)[C@H]12 (stereo partly drawn) | Reversible |  |  | 
CC1CCC23CCC4(C)C5(C)CCC6C(C)(C)C(=O)CCC6(C)C5C=CC4(OC2)C3C1C (stereo not drawn) | Reversible | 11 | 13 | 
CC1(C)CCC[C@](C)([C@H]2CC[C@]3(C)[C@@H]2[C@H](O)C[C@@H]2[C@@]4(C)CC[C@H](O)C(C)(C)[C@@H]4[C@H](O)C[C@]23C)O1 | Reversible | 10 | 14 | 
CC1=C(O)C(=O)C=C2C1=CC=C1[C@@]2(C)CC[C@@]2(C)[C@@H]3C[C@](C)(C(=O)O)CC[C@]3(C)CC[C@]12C | Irreversible | 10 | 10 | 
CC1(C)CC[C@]2(C)CC[C@]3(C)[C@H](CC[C@@H]4[C@@]5(C)CCCC(C)(C)[C@@H]5CC[C@]43C)[C@@H]2C1 | Reversible | 9 | 15 | 
NC(=O)c1ncn([C@@H]2O[C@H](CO)[C@@H](O)[C@H]2O)c1N [AICAR] |  |  |  | effectiveness compared with PTP1B inhibitors (Mecp2 mutant mice): none of the three inhibitors were as effective as PTP1B inhibitors
CC1(C)CC[C@]2(C(=O)O)CC[C@]3(C)C(=CC[C@@H]4[C@@]5(C)C[C@@H](O)[C@H](O)[C@@](C)(CO)[C@@H]5CC[C@]43C)[C@@H]2C1 | Reversible | 7 | 8.3 | 
C=C(C)[C@@H]1CC[C@]2(C)CC[C@]3(C)[C@H](CC[C@@H]4[C@@]5(C)CC[C@H](O)C(C)(C)[C@@H]5CC[C@]43C)[C@@H]12 | Reversible | 1.5 | 2.5 | 
C[C@H]1[C@H](C)CC[C@]2(C(=O)O)CC[C@]3(C)C(=CC[C@@H]4[C@@]5(C)C[C@@H](O)[C@H](O)C(C)(C)[C@@H]5CC[C@]43C)[C@H]12 | Irreversible | 1.5 | 3 | 
C=C(C)[C@@H]1CC[C@]2(C(=O)O)CC[C@]3(C)[C@H](CC[C@@H]4[C@@]5(C)CC[C@H](OC(=O)CC(C)(C)C(=O)O)C(C)(C)[C@@H]5CC[C@]43C)[C@@H]12 | Irreversible | 4.4 | 7 | 
CC1(C)CC[C@]2(C)CC=C3C(C)(CC[C@@H]4[C@@]5(C)CC[C@H](O)C(C)(C)[C@@H]5CC[C@@]34C)[C@@H]2C1 (stereo partly drawn) | Reversible | 5 | 8 | 
C[C@H]1[C@H](C)CC[C@]2(CO)CC[C@]3(C)C(=CC[C@@H]4[C@@]5(C)CC[C@H](O)C(C)(C)[C@@H]5CC[C@]43C)[C@H]12 | Reversible |  |  | 
CC/C=C/C(C)(O)OCC1(C)C(=O)CCC2(C)C1CCC1(C)C2CCC2C3C(C)C(C)CCC3(C)CCC21C (stereo not drawn) | Reversible | 22 | 18 | 
CC1(C)CC[C@]2(C(=O)O)CC[C@]3(C)C(=CC[C@@H]4[C@@]5(C)CC[C@H](O)C(C)(C)[C@@H]5CC[C@]43C)[C@@H]2C1 | Reversible |  |  | 
